Assay results taken from US20210401827A1 (priority 2018, published 2021).
Read-outs that look alike come from different tables or passages of the source.

Assays:
[1] = human, in vivo
[2] = in vivo; cited from earlier work
[3] = human, in vivo; remark: listed apart in the source

C=C1CC[C@@]2(O)[C@H]3Cc4ccc(O)c5c4[C@@]2(CCN3CC2CC2)[C@H]1O5 [Nalmefene, 17-cyclopropylmethyl-4,5α-epoxy-6-methylenemorphinan-3,14-diol]
Lambda z [1]: 0.094 h⁻¹
AUCextrap ([1]; im, 1.5 mg): 22.6%
Cmax/D ([1]; im, 1.5 mg): 1.12 ng/mL/mg
adverse events with an incidence less than 1% [2]: bradycardia, arrhythmia, diarrhea, dry mouth, somnolence, depression, agitation, nervousness, tremor, confusion, withdrawal syndrome, myoclonus, pharyngitis, pruritus, and urinary retention
common adverse reactions with an incidence greater than 1% [2]: nausea, vomiting, tachycardia, hypertension, postoperative pain, fever, dizziness, headache, chills, hypotension, and vasodilation

O=C1CC[C@@]2(O)[C@H]3Cc4ccc(O)c5c4[C@@]2(CCN3CC2CC2)[C@H]1O5 [Naltrexone, 17-(cyclopropylmethyl)-4,5α-epoxy-3,14-dihydroxymorphinan-6-one]
λz [3]: 0.361 h⁻¹
AUCextrap ([3]; im, 2 mg): 1.01%
Cmax/Dose ([3]; im, 2 mg): 2.27 ng/mL/mg
